Measurements taken from patent publication US10881649B2, “Therapeutic agent or preventive agent for alopecia areata” (Toray Industries, Inc., priority 2017, dated 2021).

Key:
[1] = tested on: mouse alopecia areata model; assay: Symptom-suppressing effect on a mouse alopecia areata model (preventive protocol); type: in vivo, C3H/HeJ mice; details: for hair loss score (mean±standard error): Day 63, 10 mg/kg orally once daily Day 0 to Day 62, n=10, vehicle group 3.2±1.13; for range of hair loss (FIG. 1): abdomen on Day 63, compared with the disease group (vehicle treatment group), 10 mg/kg orally once daily
Method: The effect of cyclic amine derivative (I) or a pharmacologically acceptable salt thereof in a mouse alopecia areata model was evaluated using increase in the hair loss score as an index of worsening of symptoms. The mouse alopecia areata model was prepared by partially modifying the method by Wang et al. (Journal of Investigative Dermatology, 2015, Vol. 135, p. 2530-2532).
(§1) Female C3H/HeJ mice (CLEA Japan, Inc.) with spontaneous hair loss in 70% or more of the body surface were used as donor mice. The donor mice were euthanized by cervical dislocation, and then the inguinal, axilla, and auricular lymph nodes were aseptically removed. The lymph nodes were filtered through a 70 μm cell strainer to isolate lymphocytes. The lymphocytes were washed with Advanced RPMI media (containing 10% fetal bovine serum, 2 mM Gluta Max, and 100 U/mL penicillin streptomycin), and then suspended in Advanced RPMI media to which Human rIL-2 (Roche; final concentration of 30 U/mL), Mouse rIL-7 (R&D systems, Inc.; final concentration of 25 ng/mL), and Mouse rIL-15 (R&D systems, Inc.; final concentration of 50 ng/mL) were added so that the concentration was 2×10^6 cells/mL. The lymphocytes were seeded in 1 mL portions on 24-well plates, and 500 μL of Dynabead mouse T-activator CD3/CD28 (Life Technologies) was added, followed by culture in a CO2 incubator. Culture was performed for 6 days so that the cell density was 1.5 to 2.0×10^6 cells/mL during culture.
The day of transplantation of lymphocytes derived from donor mice was regarded as Day 0. Two days before the day of transplantation (Day −2), hair on the back, which would be a transplantation site, of 10-week old female C3H/HeJ mice without hair loss (CLEA Japan, Inc.) was removed with an electric hair clipper under isoflurane anesthesia (1.5 cm×1.5 cm). Furthermore, grouping was performed using the body weight on Day −1 as an index.
On Day 0, lymphocytes in which beads were removed with EasySep magnet (Stemcell Technologies Inc.) were collected into new tubes. The collected lymphocytes were suspended in PBS(−) so that the concentration was 10×10^7 cells/mL, filled in a 1 mL syringe with a 26G injection needle, and stored on ice until transplantation. Under isoflurane anesthesia, the filled lymphocyte suspension was intradermally injected into the hair removal site in 100 μL/body portions. […]
On Day 63, photographs of the back and the abdomen of the mice were taken under isoflurane anesthesia. The status of hair loss was evaluated by partially modifying the method by Alli et al. (Journal of Immunology, 2012, Vol. 188, p. 477-486). In other words, the ratio of the area of hair loss site to the body surface area was scored in accordance with the criteria mentioned in Table 4, and defined as the hair loss score. […]

[2] = tested on: mouse alopecia areata model; assay: Symptom-suppressing effect on a mouse alopecia areata model (therapeutic protocol); type: in vivo, C3H/HeJ mice; details: Day 91; 10 mg/kg orally once daily Day 49 to Day 90; n=6; vehicle group 9.2±0.83; Day 49 mean 3.6±0.66
Method: The effect of cyclic amine derivative (I) or a pharmacologically acceptable salt thereof in a mouse alopecia areata model was evaluated using increase in the hair loss score as an index of worsening of symptoms. The mouse alopecia areata model was prepared using the same method as in Example 73.
as §1, with “In other words, female” for “Female”, “The lymphocytes were seeded in 1 mL portions on 24-well plates, and 500 μL of Dynabead mouse T-activator CD3/CD28 (Life Technologies) was added, followed by culture in a CO2 incubator. Culture was performed for 6 days so that the cell density was 1.5 to 2.0×10^6 cells/mL during culture.” left out
On Day 49, grouping was performed using the mouse hair loss score calculated in the same manner as in Example 73 as an index (the hair loss score on Day 49 (mean±standard error): 3.6±0.66). […]
On Day 91, the mouse hair loss score was calculated in the same manner as in Example 73. […]

In the case of `CN(CC(=O)N1CCCC[C@@H]1C(=O)Nc1ccc(-c2ccccc2OC(F)(F)F)c(Cl)c1)S(C)(=O)=O` [Compound of Example 29, (R)—N-(2-chloro-2′-(trifluoromethoxy)-[1,1′-biphenyl]-4-yl)-1-(2-(N-methylmethylsulfonamide)acetyl)piperidine-2-carboxamide], the “hair loss score (mean±standard error)” value [1] is reported as 1.3±0.67, the “range of hair loss (FIG. 1)” value [1] is reported as “very smaller” and the “hair loss score (mean±standard error)” value [2] is reported as 4.3±1.41.
`O=C(Nc1ccc(-c2ccccc2OC(F)(F)F)c(Cl)c1)[C@H]1CCCCN1C(=O)Cn1cnnn1` [Compound of Example 57, (R)-1-(2-(1H-tetrazol-1-yl)acetyl)-N-(2-chloro-2′-(trifluoromethoxy)-[1,1′-biphenyl]-4-yl)piperidine-2-carboxamide] was tested, and the “hair loss score (mean±standard error)” value [1] was 1.8±0.88, the “range of hair loss (FIG. 1)” value [1] was “very smaller” and the “hair loss score (mean±standard error)” value [2] was 5.5±1.43.
